Measured values reported in patent publication EP0049913A2, “New ethenylimidazole derivatives, processes for their preparation and pharmaceutical compositions containing them; intermediates, useful in their preparation and a process for the preparation thereof” (GIST-BROCADES N.V., priority 1980, dated 1982).
Converted amounts (≈) assume the structure as drawn. Counter-ions that a name gives are not always drawn. Like-named read-outs stand apart in the source and are kept apart here.

How the values were obtained:
[1] = tested on: Candida albicans strain A 7; experiment: method B: vaginitis candidamycetica in mice (vaginal reduction); type: in vivo; settings: clotrimazol = 100%
Experimental: Female Swiss SPF mice, weighing 19-21 g, fifteen animals per group, following an intramuscular premedication by Dimenformon prolongatum, were inoculated intravaginally with +5.105 CFU of Candida albicans strain A 7, harvested from a culture on Mycological Agar and suspended in physiological saline.
The treatment commenced 72 hours after infection when the candidiasis had reached its peak. A four day local treatment period was employed, consisting of two applications daily of 0.02 ml of antimycotics in Plastibase intravaginally. Alternatively, the test compound was administered orally in three doses daily for three days.
On the seventh day after infection the mice were killed, the vagina was excised and homogenized in saline and cultivated on Mycological Agar. The yeast cells were then counted and expressed as CFU/vagina. Results were analysed statistically using the T-test. The results were compared with those obtained with clotrimazol, the action of which was considered as 100%.

[2] = tested on: Candida albicans strain A 7; experiment: method A: systemic infection with Candida albicans in mice; type: in vivo; settings: three doses daily for 3 days, control animals = 1
Experimental: A. Testing of compounds against systemic infection with Candida albicans in mice.
Female Swiss SPF mice, weighing […], ten animals per group, were challenged intravenously with 0.5 ml Candida albicans strain A 7 suspension containing sufficient yeast cells to kill 50% of the untreated animals within 5 days. The treatment consisted of three doses daily administered for 3 days either orally or intraperitoneally. Infected, non treated mice served as controls for mortality. The number of mice surviving the challenge was recorded daily and the ratio between the "median survival duration (days)" of the treated and untreated mice was determined, the survival duration of the control animals being graded as 1 (IMSD = Index Median Survival Duration).

Candida albicans = experiment: agar dilution test, Candida albicans; type: cell-based; settings: for Potency Ratio (P.R.) MIC 50 / Potency Ratio (P.R.) MIC 90: ratio to activity of miconazol (= 1)
Experimental: (§1) The compounds of the invention were tested in vitro and in vivo. The in vitro activities were determined by means of the usual agar dilution test. The results after two and five days were expressed as MIC 50 and MIC 90, i.e. the minimum concentrations giving complete inhibition of 50% or 90% of the strains tested in […] and as Potency Ratio (P.R.), i.e. the ratio between the activity of the test compound and the activity of miconazol (= 1).

Trichophyton spp. = experiment: agar dilution test, Trichophyton spp.; type: cell-based; settings: 5 d, ratio to activity of miconazol (= 1)
Experimental: as §1

[3] = tested on: Trichophyton mentagrophytes strain R 177; experiment: method C: experimental dermatophytic infection in guinea pigs; type: in vivo; settings: local treatment, 2% in Plastibase, twice daily for 10 days; scored on 14th day; grades 1-4; untreated animals 4
Experimental: C. Testing of compounds against experimental dermatophytic infection. (Trichophyton mentagrophytes)
Out-bred blanco TNO female guinea pigs, five animals per group, weighing + 350 g, were prepared by depilation high in the middle of the back over an area 2.5 cm in diameter.
Inoculum was prepared from a culture of Trichophyton mentagrophytes strain R 177 on Mycological Agar. The harvested mycelial mat was diluted in a 20% dextrose solution in water and the suspension was smeared over the depilated area.
Local treatment with 2% concentration of the antimycotic in Plastibase started 72 hours after infection and concurrently the application of vehiculum (Plastibase) to the infected animals was initiated. The application was continued for 10 days and consisted of two applications daily of a measured quantity of ointment to the infected area.
Scoring of lesions and the final check was made on the 14th day after the infection was initiated. The lesions were graded as to the following parameters: • 1 = slight whitish scaling, with erythema • 2 = slight whitish or light yellow scaling with solitary haemorrhagias • 3 = thick whitish-yellow crust or scab • 4 = haemorrhagic ulcer or giant haemorrhagic thick scutula (crust).
The final results were recorded as the average of lesion intensities (A.L.I.) for each experimental group (treated with either test compound or reference compound and untreated control).

[4] = local intravaginal treatment in Plastibase, two applications daily for four days
[5] = 48 h, after 2 d, complete inhibition of 50% of the strains tested, read-out: MIC 50
[6] = 48 h, after 2 d, complete inhibition of 90% of the strains tested, read-out: MIC 90
[7] = 120 h, after 5 d, complete inhibition of 50% of the strains tested, read-out: MIC 50
[8] = 120 h, after 5 d, complete inhibition of 90% of the strains tested, read-out: MIC 90
[9] = p.o., three doses daily for three days

SMILES	vag.red. % [1, 4] [%]	IMSD (Index Median Survival Duration) ([2]; i.p.)	IMSD (Index Median Survival Duration) ([2]; p.o.)	MIC50 (Candida albicans; [5]) [ng/mL]	MIC90 (Candida albicans; [6]) [ng/mL]	Potency Ratio (P.R.) MIC 50 (Candida albicans; 2 d)	Potency Ratio (P.R.) MIC 90 (Candida albicans; 2 d)	MIC50 (Candida albicans; [7]) [ng/mL]	MIC90 (Candida albicans; [8]) [ng/mL]	Potency Ratio (P.R.) MIC 50 (Candida albicans; 5 d)	Potency Ratio (P.R.) MIC 90 (Candida albicans; 5 d)	Potency Ratio (P.R.) MIC 50 (Trichophyton spp.)	Potency Ratio (P.R.) MIC 90 (Trichophyton spp.)	A.L.I. (average of lesion intensities) [3]	vag.red. % [1, 9]	MIC50 (Candida albicans; 48 h) [ng/mL]	MIC90 (Candida albicans; 48 h) [ng/mL]	MIC50 (Candida albicans; 120 h) [ng/mL]	MIC90 (Candida albicans; 120 h) [ng/mL]
CCCC(=Cn1ccnc1)c1ccc(Cl)cc1Cl.Cl [I, 1-[2-(2,4-dichlorophenyl)-1-pentenyl]-1H-imidazol hydrochloride]	35	1.4	3.0	3	8	1.0	1.2	4	9	1.0	0.7	35.3	13.9	0	–	–	–	–	–
CCC(C)C(=Cn1ccnc1)c1ccc(Cl)cc1 (stereo not shown) [II, 1-[2-(4-chlorophenyl)-3-methyl-1-pentenyl] -lH-imidazole]	98	3.8	4.6	2 (≈ 0.00767 µM)	5 (≈ 0.0192 µM)	1.7	1.7	4 (≈ 0.0153 µM)	6 (≈ 0.023 µM)	1.2	1.9	2.8	2.1	0	–	–	–	–	–
Clc1ccc(C(=Cn2ccnc2)C2CCCCC2)cc1 [V, 1-[2-(4-chlorophenyl)-2-cyclohexylethenyl] -lH-imidazole hydrochloride]	–	3.5	4.1	3	8	1.3	1.0	5	10	1.1	1.1	0.8	0.6	–	150 (p.o.) %	–	–	–	–
CCC(C)C(=Cn1ccnc1)c1ccc(Cl)cc1Cl.Cl (stereo not shown) [III, 1-[2-(2,4-Dichlorophenyl)-3-methyl-1-pentenyl]-1H-imidazole hydrochloride]	136	3.5	4.1	5	10	0.7	0.9	6	11	0.7	1.2	1.7	0.8	0	–	–	–	–	–
CC(C)(C)C(=Cn1ccnc1)c1ccc(Cl)cc1Cl.O=[N+]([O-])O [IV, 1-[2-(2,4-dichlorophenyl)-3,3-dimethyl-1-butenyl]-1H-imidazole nitrate]	59	5.1	3.1	–	–	0.7	0.9	–	–	0.5	0.5	15.1	4.1.	0	24%	3	5	5	11
Clc1ccc(C(=Cn2ccnc2)C2CCCCC2)c(Cl)c1 [VI, 1-[2-cyclohexyl-2-(2,4-dichlorophenyl)ethenyl]-IH-imidazole hydrochloride]	97	3.7	3.9	4	8	0.9	0.7	5	11	0.8	0.6	1.9	1.0	0.4	52%	–	–	–	–
